According to US20100184799A1, “OXADIAZOLE BETA CARBOLINE DERIVATIVES AS ANTIDIABETIC COMPOUNDS” (priority 2009, published 2010):

Assays:
SSTR3 [1] = biological target: T1, SSTR3 (Homo sapiens, UniProt P32745); assay: SSTR3 functional antagonist assay: cAMP production with FSK + SS-14 in SSTR3 stable CHO cells; type: cell-based, human or mouse; design: […]; conditions: […] FSK + 100 nM SS-14
Experimental: The effects of compounds that bind to human and murine SSTR3 with various affinities on the functional activity of the receptor were assessed by measuring cAMP production in the presence of Forskolin (FSK) along or FSK plus SS-14 in SSTR3 expressing CHO cells. FSK acts to induce cAMP production in these cells by activating adenylate cyclases, whereas SS-14 suppresses cAMP production in the SSTR3 stable cells by binding to SSTR3 and the subsequent inhibition of adenylate cyclases via an alpha subunit of GTP-binding protein (Gαi).
The amount of cAMP produced during the incubation was also quantified with the Lance cAMP assay. […] The % Inhibition of each compound was calculated using the following formula:
% Inhibition=[1−(unknown cAMP/FSK+SS-14 cAMP)]×100

SSTR3 [2] = biological target: T1, SSTR3; assay: SSTR3 receptor-ligand binding assay, (3-125I-Tyr11)-SRIF-14 radioligand, CHO-K1 cell membranes; design: expressed in transfected cells; membranes used; conditions: cloned human SSTR3, CHO-K1 membranes, 0.1 nM radioligand
Experimental: The receptor-ligand binding assays of all 5 subtype of SSTRs were performed with membranes isolated from Chinese hamster ovary (CHO)—K1 cells stably expressing the cloned human somatostatin receptors in 96-well format as previous reported.
The stable cell lines for SSTR1-SSTR5 were developed by stably transfecting with DNA for all five SSTRs using Lipofectamine. […] The assay buffer consisted of 50 mM TrisHCl (pH 7.8) with 1 mM EGTA, 5 mM MgCl2, leupeptin (10 μg/mL), pepstatin (10 μg/mL), bacitracin (200 μg/mL), and aprotinin (0.5 μg/mL). CHO—K1 cell membranes, radiolabeled somatostatin, and unlabeled test compounds were resuspended or diluted in this assay buffer. Unlabeled test compounds were examined over a range of concentrations from 0.01 nM to 10,000 nM.

T1 sequence (P32745 whole entry): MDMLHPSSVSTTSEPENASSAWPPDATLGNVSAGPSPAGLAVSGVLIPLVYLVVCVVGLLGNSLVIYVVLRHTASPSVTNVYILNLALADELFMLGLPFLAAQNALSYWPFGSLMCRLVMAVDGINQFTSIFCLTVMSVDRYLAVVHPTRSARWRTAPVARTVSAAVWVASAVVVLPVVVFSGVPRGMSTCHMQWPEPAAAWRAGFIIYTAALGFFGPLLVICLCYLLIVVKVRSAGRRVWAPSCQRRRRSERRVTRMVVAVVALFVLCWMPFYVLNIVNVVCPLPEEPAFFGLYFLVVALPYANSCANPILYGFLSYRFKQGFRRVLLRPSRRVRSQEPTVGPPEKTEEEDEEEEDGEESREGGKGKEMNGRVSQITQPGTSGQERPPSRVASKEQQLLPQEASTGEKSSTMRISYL

| Compound | EC50 (SSTR3 [1]) [nM] | Ki (SSTR3 [2]) [nM] |
| --- | --- | --- |
| CCn1nc(C2(c3nnn(C)n3)N[C@@H](c3nc(-c4ccc(F)cn4)c[nH]3)Cc3c2[nH]c2ccccc32)oc1=O (single isomer, unassigned) [Example 48] | 63.4 | – |
| CCn1nc(C2(c3noc(C)n3)N[C@@H](c3nc(-c4ccc(F)cn4)c[nH]3)Cc3c2[nH]c2ccccc32)oc1=O (single isomer, unassigned) [Example 8] | 18 | 23.7 |
| CCn1nc(C2(c3noc(COC)n3)N[C@@H](c3nc(-c4ccc(F)cn4)c[nH]3)Cc3c2[nH]c2ccccc32)oc1=O (single isomer, unassigned) [Example 41] | 19 | – |
| CCn1nc(C2(c3ccc(C#N)cc3)N[C@@H](c3nc(-c4ccc(F)cn4)c[nH]3)Cc3c2[nH]c2ccccc32)oc1=O (single isomer, unassigned) [Example 16] | 11 | – |
| Cn1cc(C2(c3nnc(O)o3)N[C@@H](c3nc(-c4ccc(F)cc4)c[nH]3)Cc3c2[nH]c2ccccc32)cn1 (single isomer, unassigned) [Example 19] | 47.5 | – |
| CCn1nnc(C2(c3nnc(O)o3)N[C@@H](c3nc(-c4ccc(F)cn4)c[nH]3)Cc3c2[nH]c2ccccc32)n1 (single isomer, unassigned) [Example 45] | 32.6 | – |
| N#Cc1ccc(C2(c3nnc(O)o3)N[C@@H](c3nc(-c4ccc(F)cc4)c[nH]3)Cc3c2[nH]c2ccccc32)cc1 (mixture of isomers) [Example 13] | 18.9 | 9.2 |
| Cn1nnc(C2(c3nnc(O)o3)N[C@@H](c3nc(-c4ccc(F)cn4)c[nH]3)Cc3c2[nH]c2ccccc32)n1 (single isomer, unassigned) [Example 43] | 1070 | – |
| Cn1cc(C2(c3nnc(O)o3)N[C@@H](c3nc(-c4ccc(F)cn4)c[nH]3)Cc3c2[nH]c2ccccc32)cn1 (single isomer, unassigned) [Example 20] | 680 | – |
| CCn1nnc(C2(c3nn(C)c(=O)o3)N[C@@H](c3nc(-c4ccc(F)cn4)c[nH]3)Cc3c2[nH]c2ccccc32)n1 (single isomer, unassigned) [Example 46] | 21.4 | – |
| CCn1nc(C2(c3ccc(C#N)cc3)N[C@@H](c3nc(-c4ccc(F)cn4)c[nH]3)Cc3c2[nH]c2ccccc32)oc1=O (single isomer, unassigned) [Example 17] | 25.6 | – |
| Cc1nc(C2(c3nnc(O)o3)NC(c3nc(-c4ccc(F)cc4)c[nH]3)Cc3c2[nH]c2ccccc32)no1 (mixture of isomers) [Example 38] | 24.6 | – |
| Cn1nc(C2(c3ccccc3)N[C@@H](c3nc(-c4ccc(F)cc4)c[nH]3)Cc3c2[nH]c2ccccc32)oc1=O (single isomer, unassigned) [Example 2] | 29.1 | 31.4 |
| Cn1nc(C2(c3ccc(C#N)cc3)NC(c3nc(-c4ccc(F)cc4)c[nH]3)Cc3c2[nH]c2ccccc32)oc1=O (single isomer, unassigned) [Example 15] | 30.5 | 2 |
| Oc1nnc(C2(c3ccccc3)N[C@@H](c3nc(-c4ccc(F)cc4)c[nH]3)Cc3c2[nH]c2ccccc32)o1 (mixture of isomers) [Example 10] | 10.7 | 3.3 |
| CCn1nnc(C2(c3nn(C)c(=O)o3)N[C@@H](c3nc(-c4ccc(F)cn4)c[nH]3)Cc3c2[nH]c2ccccc32)n1 (single isomer, unassigned) [Example 47] | 74.4 | – |
| COCc1nc(C2(c3nnc(O)o3)N[C@@H](c3nc(-c4ccc(F)cn4)c[nH]3)Cc3c2[nH]c2ccccc32)no1 (single isomer, unassigned) [Example 39] | 12.5 | – |
| Cn1nc(C2(c3ccccc3)NC(c3nc(-c4ccc(F)cn4)c[nH]3)Cc3c2[nH]c2ccccc32)oc1=O (single isomer, unassigned) [Example 11] | 74.1 | 52.2 |
| CCn1nnc(C2(c3nnc(O)o3)N[C@@H](c3nc(-c4ccc(F)cn4)c[nH]3)Cc3c2[nH]c2ccccc32)n1 (single isomer, unassigned) [Example 44] | 2000 | – |
| Cc1nc(C2(c3nnc(N)o3)NC(c3nc(-c4ccc(F)cc4)c[nH]3)Cc3c2[nH]c2ccccc32)no1 (mixture of isomers) [Example 56] | 17.8 | – |

Stronger by EC50 (SSTR3 [1]), values ahead:

| EC50 (SSTR3 [1]) [nM] | Ki (SSTR3 [2]) [nM] | Compound |
| --- | --- | --- |
| 8 | 13.3 | Cn1cc(C2(c3nnc(N)o3)N[C@@H](c3nc(-c4ccc(F)cc4)c[nH]3)Cc3c2[nH]c2ccccc32)cn1 (single isomer, unassigned) [Example 52] |
| 6.1 | – | Cn1cc(C2(c3nn(C)c(=O)o3)N[C@@H](c3nc(-c4ccc(F)cc4)c[nH]3)Cc3c2[nH]c2ccccc32)cn1 (single isomer, unassigned) [Example 22] |
| 5.9 | 1.2 | Cn1nc(C2(c3ccccc3)NC(c3nc(-c4ccc(F)cn4)c[nH]3)Cc3c2[nH]c2ccccc32)oc1=O (single isomer, unassigned) [Example 12] |
| 5.4 | 1.2 | Cn1nc(C2(c3ccc(C#N)cc3)NC(c3nc(-c4ccc(F)cc4)c[nH]3)Cc3c2[nH]c2ccccc32)oc1=O (single isomer, unassigned) [Example 14] |
| 3.8 | 0.8 | Cn1nc(C2(c3ccccc3)N[C@@H](c3nc(-c4ccc(F)cc4)c[nH]3)Cc3c2[nH]c2ccccc32)oc1=O (single isomer, unassigned) [Example 1] |
| 3.2 | – | COCc1nc(C2(c3nn(C)c(=O)o3)N[C@@H](c3nc(-c4ccc(F)cn4)c[nH]3)Cc3c2[nH]c2ccccc32)no1 (single isomer, unassigned) [Example 42] |
| 3 | – | CCn1nc(C2(c3noc(COC)n3)N[C@@H](c3nc(-c4ccc(F)cn4)c[nH]3)Cc3c2[nH]c2ccccc32)oc1=O (single isomer, unassigned) [Example 40] |
| 2.6 | 4.2 | CCn1nc(C2(c3noc(C)n3)N[C@@H](c3nc(-c4ccc(F)cn4)c[nH]3)Cc3c2[nH]c2ccccc32)oc1=O (single isomer, unassigned) [Example 9] |
| 2.3 | 1.2 | Cn1cc(C2(c3nn(C)c(=O)o3)N[C@@H](c3nc(-c4ccc(F)cc4)c[nH]3)Cc3c2[nH]c2ccccc32)cn1 (single isomer, unassigned) [Example 23] |
| 1.9 | 0.9 | CSc1nnc(C2(c3cnn(C)c3)N[C@@H](c3nc(-c4ccc(F)cc4)c[nH]3)Cc3c2[nH]c2ccccc32)o1 (some centres unmarked) [Example 58] |
| 1.9 | 1.1 | CCn1cc(C2(c3nn(C)c(=O)o3)N[C@@H](c3nc(-c4ccc(F)cc4)c[nH]3)Cc3c2[nH]c2ccccc32)cn1 (mixture of isomers) [Example 36] |
| 1.8 | – | CCn1cc(C2(c3nnc(O)o3)NC(c3nc(-c4ccc(F)cc4)c[nH]3)Cc3c2[nH]c2ccccc32)cn1 (mixture of isomers) [Example 35] |
| 1.1 | – | Cn1cc(C2(c3nnc(O)o3)N[C@@H](c3nc(-c4ccc(F)cc4)c[nH]3)Cc3c2[nH]c2ccccc32)cn1 (single isomer, unassigned) [Example 18] |
| 0.8 | – | CSc1nnc(C2(c3cnn(C)c3)NC(c3nc(-c4ccc(F)cn4)c[nH]3)Cc3c2[nH]c2ccccc32)o1 (mixture of isomers) [Example 57] |
| 0.8 | – | Cn1nc(C2(c3cnn(C4CC4)c3)N[C@@H](c3nc(-c4ccc(F)cn4)c[nH]3)Cc3c2[nH]c2ccccc32)oc1=O (single isomer, unassigned) [Example 59] |
| 0.6 | – | Oc1nnc(C2(c3cnn(C4CC4)c3)N[C@@H](c3nc(-c4ccc(F)cn4)c[nH]3)Cc3c2[nH]c2ccccc32)o1 (single isomer, unassigned) [Example 37] |
| 0.5 | 0.9 | CCOC(=O)Cn1nc(C2(c3cnn(CC)c3)N[C@@H](c3nc(-c4ccc(F)cn4)c[nH]3)Cc3c2[nH]c2ccccc32)oc1=O (single isomer, unassigned) [Example 34] |
| 0.2 | – | Cn1cc(C2(c3nnc(N)o3)N[C@@H](c3nc(-c4ccc(F)cc4)c[nH]3)Cc3c2[nH]c2ccccc32)cn1 (single isomer, unassigned) [Example 53] |
